Type in all cases: functional
Holding throughout (conditions): read-out: ED50 (the source's name)

The test system of one experiment is KB. Briefly: Cytotoxicity against human KB cells.
The subject of the next experiment is A549. Briefly: Cytotoxicity against human A549 cells.
The subject of a further experiment is L1210. As to the kind of experiment: Cytotoxicity against mouse L1210 cells.
The next experiment relates to P388. As to the kind of experiment: Cytotoxicity against mouse P388 cells.
The next experiment relates to HCT-8. Briefly: Cytotoxicity against human HCT8 cells.

SMILES strings stand for the structures. ≈ marks a conversion by molar mass, not a printed value.

In the case of `CC(=O)O[C@H]1C[C@@H](O)[C@]2(C=O)[C@H]3CC[C@]4(C)[C@@H](c5ccc(=O)oc5)CC[C@]4(O)[C@@H]3CC[C@]2(O)C1`, the EC50 in the experiment on KB was less than 0.04 µg/mL; in the experiment with A549 it was 0.04 µg/mL (≈ 0.0843 µM); with L1210 it was greater than 0.004 µg/mL; with P388, greater than 0.004 µg/mL; in the experiment on HCT-8 it was 0.01 µg/mL (≈ 0.0211 µM).
For `C[C@@]12O[C@H]3C[C@@H](O1)[C@]1(C=O)[C@H]4[C@H](O)C[C@]5(C)[C@@H](c6ccc(=O)oc6)CC[C@]5(O)[C@@H]4CC[C@@]1(C3)O2` [BRYOPHYLLIN A], the EC50 with KB is 0.014 µg/mL (≈ 0.0296 µM); in the experiment with A549 it was 0.01 µg/mL (≈ 0.0212 µM); in the experiment on L1210, greater than 0.004 µg/mL; with P388 it was greater than 0.004 µg/mL; in the experiment with HCT-8, 0.03 µg/mL (≈ 0.0635 µM).
In the case of `CC(=O)O[C@@H]1C[C@H](O)C[C@@]2(O)CC[C@@H]3[C@@H]4[C@@H](C[C@]5(C)[C@@H](c6ccc(=O)oc6)CC[C@]35O)O[C@H](O)[C@]412` [BRYOPHYLLIN B], in the experiment on KB, the EC50 was less than 0.08 µg/mL.
